Experimental data published in patent US20210007356A1, “IMIDE DERIVATIVE AND FUNGICIDE CONTAINING SAID DERIVATIVE AS ACTIVE INGREDIENT” (HOKKO CHEMICAL INDUSTRY CO., LTD., priority 2018, published 2021).
Like-named read-outs stand apart in the source and are kept apart here.

Assays:
[1] = test system: barley powdery mildew fungus (Erysiphe graminis); assay: Test Example 2: control effect against barley powdery mildew by foliage application; format: in vivo; settings: wettable powder diluted to 100 ppm, 10 mL per pot foliage spray on barley; inoculated day after; 7 days after inoculation
[2] = test system: rice blast fungus (Pyricularia grisea); format: in vivo; settings: flowable diluted to 100 ppm, 10 mL per pot foliage spray on paddy rice; inoculated day after; 7 days after inoculation
[3] = test system: rice blast fungus (Pyricularia grisea); format: in vivo; settings: flowable 5,000 ppm, 50 mL irrigation of nursery box, paddy rice; inoculated after 3 weeks; 7 days after inoculation
[4] = test system: rice blast fungus (Pyricularia grisea); format: in vivo; settings: 5 g of granule on nursery box, paddy rice; inoculated after 3 weeks; 7 days after inoculation
[5] = test system: rice blast fungus (Pyricularia grisea); format: in vivo; settings: flowable 1,000 ppm, 1 mL dripped in paddy water, inoculated after 1 week, 7 days after inoculation
[6] = test system: rice sheath blight fungus (Thanatephorus cucumeris); assay: Test Example 8: control effect against rice sheath blight by box treatment (granule); settings: 5 g of granule on nursery box, paddy rice; inoculated after 3 weeks; 7 days after inoculation
[7] = test system: rice sheath blight fungus (Thanatephorus cucumeris); assay: Test Example 6: control effect against rice sheath blight by box treatment (flowable formulation); settings: flowable 5,000 ppm, 50 mL irrigation of nursery box, paddy rice; inoculated after 3 weeks; 7 days after inoculation
[8] = test system: rice sheath blight fungus (Thanatephorus cucumeris); assay: Test Example 10: control effect against rice sheath blight by water surface application (flowable formulation); settings: flowable 1,000 ppm, 1 mL dripped in paddy water, inoculated after 1 week, 7 days after inoculation

SMILES | evaluation value of control effect (from control value, lesion area percentage) [1] | evaluation value of control effect (from control value, number of lesions) [2] | evaluation value of control effect (from control value, number of lesions) [3] | evaluation value of control effect (from control value, number of lesions) [4] | evaluation value of control effect (from control value, number of lesions) [5] | evaluation value of control effect (from control value, lesion height) [6] | evaluation value of control effect (from control value, lesion height) [7] | evaluation value of control effect (from control value, lesion height) [8]
Cn1cc(C(=O)N(C(=O)c2snc(Cl)c2Cl)c2ccccc2C2CC2C2CC2)c(C(F)F)n1 (centres unmarked) [1-29] | 4 | 4 | 5 | 5 | 5 | 5 | 5 | 5
CC(C)CC(C)c1ccccc1N(C(=O)c1cn(C)nc1C(F)F)C(=O)c1snc(Cl)c1Cl (centres unmarked) [1-35] | 5 | 4 | 5 | 5 | 5 | 5 | 5 | 5
Cc1nnsc1C(=O)N(C(=O)c1cn(C)nc1C(F)F)c1ccccc1C(C)CC(C)C (centres unmarked) [1-146, N-{3-(Difluoromethyl)-1-methylpyrazole-4-carbonyl}-N-{2-(1,3-dimethylbutyl)phenyl}-4-methylthiadiazole-5-carboxamide] | 4 | 4 | 5 | 5 | 5 | 5 | 5 | 5
CC(C)CC(C)c1ccccc1N(C(=O)c1cn(C)nc1C(F)F)C(=O)c1snnc1C(F)F (centres unmarked) [1-237] | 5 | 4 | 5 | 5 | 5 | 5 | 5 | 5
Cc1nc(C(F)F)c(C(=O)N(C(=O)c2cn(C)nc2C(F)F)c2ccccc2CCC(C)C)s1 [1-313] | 4 | 4 | 5 | 5 | 5 | 5 | 5 | 5
Cn1cc(C(=O)N(C(=O)c2scnc2C(F)F)c2ccccc2-c2cc(F)c(F)c(F)c2)c(C(F)F)n1 [1-370] | 4 | 4 | 5 | 5 | 5 | 5 | 5 | 5
Cn1cc(C(=O)N(C(=O)c2onc(Cl)c2Cl)c2ccccc2-c2cc(F)c(F)c(F)c2)c(C(F)F)n1 [1-374] | 4 | 4 | 5 | 5 | 5 | 5 | 5 | 5
Cc1nn(C)c(F)c1C(=O)N(C(=O)c1cc(Cl)no1)c1ccccc1C(C)CC(C)C (centres unmarked) [1-376] | 4 | 4 | 5 | 5 | 5 | 5 | 5 | 5
CC(C)CC(C)c1sccc1N(C(=O)c1cn(C)nc1C(F)F)C(=O)c1snc(Cl)c1Cl (centres unmarked) [5-5] | 5 | 4 | 5 | 5 | 5 | 5 | 5 | 5
Cc1nnsc1C(=O)N(C(=O)c1cn(C)nc1C(F)F)c1ccsc1C(C)CC(C)C (centres unmarked) [5-23] | 5 | 4 | 5 | 5 | 5 | 5 | 5 | 5
Cc1cc(C(=O)N(C(=O)c2scnc2C(F)F)c2ccccc2C(C)CC(C)C)sn1 (centres unmarked) [7-134] | 4 | 4 | 5 | 5 | 5 | 5 | 5 | 5
Cc1nsc(C(=O)N(C(=O)c2scnc2C(F)F)c2ccccc2C(C)CC(C)C)c1Cl (centres unmarked) [7-141] | 4 | 4 | 5 | 5 | 5 | 5 | 5 | 5
CCc1nc(C(F)F)c(C(=O)N(C(=O)c2sc(C)nc2C(F)F)c2ccccc2C(C)CC(C)C)s1 (centres unmarked) [7-216] | 4 | 4 | 5 | 5 | 5 | 5 | 5 | 5
Cc1nc(C(F)F)c(C(=O)N(C(=O)c2sc(C)nc2C(F)(F)F)c2ccccc2C(C)CC(C)C)s1 (centres unmarked) [7-226] | 4 | 4 | 5 | 5 | 5 | 5 | 5 | 5
Cc1nc(C(F)F)c(C(=O)N(C(=O)c2sc(C)nc2C(F)F)c2ccccc2C(C)CC(C)C)s1 (centres unmarked) [7-238, 4-Difluoromethyl-N-{4-(difluoromethyl)-2-methyl-thiazole-5-carbonyl}-N-{2-(1,3-dimethylbutyl)phenyl}-2-methyl-thiazole-5-carboxamide] | 5 | 4 | 5 | 5 | 5 | 5 | 5 | 5
Cc1nc(C(F)F)c(C(=O)N(C(=O)c2scnc2C(F)F)c2ccccc2C(C)CC(C)C)s1 (centres unmarked) [7-262] | 4 | 4 | 5 | 5 | 5 | 5 | 5 | 5
